Columns and labels:
[1] = test system: kinases in D04, D04RM and MM415 melanoma cell extracts; assay: High Throughput Kinase Activity Mapping (HT-KAM); assay type: cell-based, human; details: ASO 50 nM, one day, vs Control-ASO
Experimental: We mapped and compared the phospho-catalytic profile of kinases of D04, MM415 and D04RM cells that were incubated with TRASH targeting ASOs (SEQ TD NO: 15), ASOs targeting the oncogenic lncRNA Malat1 and non-targeting control ASOs. Therefore, ye used the high-throughput system HTKAM to measure the enzymatic activity of kinases using biological peptide targets as phospho-sensors to reveal kinase dependencies in cell lines.
Kinases cover a wide range of apoptosis regulating functions in cancer. Given the findings that TRASH-ASO treatment (SEQ ID NO:15) strongly affects the transcriptional regulation of genes that are related to kinase signaling pathways, we aimed to perform functional profiling of kinase activity shifts triggered by TRASH-inhibition. To do so, we used a kinase activity screening platform39 (named High Throughput Kinase Activity Mapping—HT-KAM) that enables the simultaneous identification of kinase enzymes functional state in cancer cells across a broad range of kinase families (see Methods for details). We generated protein extracts of two versions of the D04 (D04—treatment naive; D04RM—trametinib resistant) and the MM415 melanoma cell-lines, treated with Control-ASOs or TRASH-ASOs. […]

D04 cells = assay: Flow cytometry apoptosis (Annexin V and propidium iodide); assay type: cell-based, human; details: 50 nM, 24 h, vs Control-ASO
Experimental: To confirm activation of apoptosis and cell death in response to TRASH-ASO treatment (SEQ ID NO: 15) D04 cells were either treated with control-ASO or TRASH-ASO (50 nM) for 24 h. The cells were stained with Alexa 488 Annexin V and propidium iodide (PI) (Invitrogen™ Dead Cell Apoptosis Kits with Annexin V for Flow Cytometry Catalog number: V13241). […] (FIG. 5e)

[2] = test system: gene expression in D04 melanoma cells; assay: DAVID Functional Annotation Clustering (GO term) analysis of DE genes; set-up: species or system human; details: RNA-Seq
Experimental: Differential expression (DE) analysis was done using DESeq2. Differentially expressed genes were defined by more than 1.5-fold changes (log 2 >0.58 or <−0.58) in expression with FDR<0.05. GO term analysis was done using DAVID Functional Annotation Clustering analysis.
To examine the biomolecular changes upon TRASH-inhibition in melanoma, D04 cells were treated with TRASH-ASOs (SEQ ID NO:15) and Control-ASOs and RNA was extracted and used for RNA-Seq. […] These GO terms consisted of genes encoding growth factors, tyrosine kinases, G protein coupled receptor subunits, and collagen subunits. Scatter plot diagram showing differential gene expression after TRASH-ASO treatment compared to Control-ASO treatment. (cut-off for significance was adjusted p-value <0.05). Data was obtained from RNA-Seq of D04 melanoma cells, treatment period was three days. (FIG. 5c)

**Q.** How did the “activity of anti-apoptotic kinases (AKT1, CDK1, LYN, YES1, CHEK1, PKCA, STK11, PKCa, PIM1) by HT-KAM” value ([1]; listed as SEQ TD NO: 15) turn out when “GACTGGAGATAATTAA (gapmer, pattern not given here) [SEQ ID NO: 15, GapmeR ASO targeting AC004540.4 (TRASH), exon region of both isoforms; used for in vitro experiments]” was run?
**A.** Its value is “significantly decreased activity levels”.

**Q.** And the “activity of anti-apoptotic kinases (AKT1, CDK1, LYN, YES1, CHEK1, PKCA, STK11, PKCa, PIM1) by HT-KAM” value ([1]; listed as TRASH-ASO)?
**A.** Its value is “significantly less active”.

**Q.** And the “fractions of apoptotic and dead cells (Annexin V / PI)” value (D04 cells)?
**A.** The value was “Increased fractions of apoptotic and dead cells”.

**Q.** What about the “top enriched GO term clusters associated with the down-regulated genes” value [2] of the same sequence?
**A.** Its value is ““ECM-receptor interaction” and “PI3K-AKT signaling pathway””.

**Q.** And the “top enriched GO term clusters associated with the up-regulated genes” value [2]?
**A.** The value was ““protein tyrosine kinase activity” (GO: 0004713) and “Ras guanyl-nucleotide exchange factor activity” (G00005088)”.

From US20250197864A1, “LNCRNA TRANSCRIPTS IN MELANOMAGENESIS” (The Regents of the University of California, priority 2021, published 2025)
